# Measured values reported in patent US9079859B2, “Synthetic lethal targeting of glucose transport” (AUCKLAND UNISERVICES LIMITED, priority 2011, dated 2015).
# Columns and labels:
# Format in all cases: cell-based
# [1] = system: UMRC6; assay: RCC panel sensitivity (Table 2); conditions: UMRC6, VHL mutant
# [2] = system: RCC4 cells; assay: Glucose uptake (2-deoxy-D-[3H]glucose), RCC4
# Method: (§1) Glucose Uptake. One hundred thousand cells were plated per well in a six-well plate. The next day, cells were treated with the indicated concentration of drug and incubated for the indicated time. Cells were then washed twice with phosphate-buffered saline, incubated in low-glucose medium for 30 minutes, and 3H-2-deoxyglucose (0.5 μCi) was added in 1 ml of glucose-free media for an additional hour. Cells were washed twice in PBS and lysed (0.2 N NaOH and 0.2% sodium dodecyl sulfate). Glucose uptake was quantified with a scintillation counter.
# [3] = system: RCC4/VHL cells; assay: Necrotic cell death by trypan blue, RCC4/VHL; conditions: 5 μM, 3 days
# Method: Cell Viability Assays. For 2,3-bis[2-methoxy-4-nitro-5-sulfophenyl]-2H-tetrazolium-5-carboxanilide (XTT) assays, five thousand cells were plated in 96-well plates. The next day, vehicle (DMSO) or drug was added by serial dilution. Four days later, media were aspirated, XTT solution (0.3 mg/ml of XTT (Sigma), […] N-methyl dibenxopyrazine methyl sulfate (Sigma) in phenol red-free media) was added, and the plates were incubated at 37° C. for 1-2 hours. Metabolism of XTT was quantified by measuring the absorbance at 450 nm. IC50s were calculated using linear interpolation. For clonogenic survival assays, three hundred cells were plated per 60 mm tissue culture dish. The cells were allowed to attach overnight and then treated with vehicle or drug for 14 days. Colonies were fixed and stained with crystal violet (0.1% crystal violet in 95% ethanol). All conditions were measured in triplicate and each experiment was done in duplicate or triplicate. To determine necrosis, cells were treated with drug for a given time point. Media and cells were collected, centrifugated, and resuspended in 0.4% trypan blue (Invitrogen). Live and dead cells were counted on a hematocytometer.
# [4] = system: RCC4 cells with HIF-1β silenced; assay: Glucose uptake in RCC4 cells with siRNA to HIF-1β
# Source text: To further investigate the relationship between HIF and STF-31 toxicity, we silenced HIF-1β in RCC4 cells and assessed its affect on glucose uptake (FIG. 6D). Transiently inhibiting HIF-1β, the constitutively expressed binding partner of HIF-1α and HIF-2α reduces HIF activity in RCC4 cells to the levels found in wild-type VHL cells. Glucose uptake was insensitive to treatment with STF-31 when the HIF-1β was silenced in RCC4 cells, further supporting the concept that the HIF-dependent glucose uptake was responsible for the differential toxicity of STF-31 to VHL-deficient renal carcinomas (FIG. 2E).
# as §1
# [5] = system: 786/VHL; assay: RCC panel sensitivity (Table 2); conditions: VHL wild-type
# [6] = system: VHL-deficient and wild-type VHL cells; assay: Oxygen consumption
# Method: Oxygen Consumption. Following treatment with vehicle or drug, cells were trypsinized, suspended at 5 million cells per ml in DMEM+10% FCS, and oxygen consumption was measured in 0.5 ml volume using an Oxytherm electrode unit (Hansatech).
# [7] = system: SN12C; assay: RCC panel sensitivity (Table 2); conditions: VHL wild-type
# [8] = system: SN12C shVHL; assay: RCC panel sensitivity (Table 2); conditions: VHL silenced
smiles,measurement,setting,value
CC(C)(C)c1ccc(S(=O)(=O)NCc2ccc(C(=O)Nc3cccnc3)cc2)cc1 [STF-31],3-series sensitivity (sensitivity to STF-31),[1],No
same,glucose uptake in RCC4 cells,[2]; 2-deoxy-D-[3H]glucose,impaired
same,glucose uptake in RCC4 cells versus concentration,[2]; increasing concentrations of STF-31,dose-dependent
same,necrotic cell death of RCC4/VHL cells,[3],relatively insensitive
same,glucose uptake when HIF-1β was silenced in RCC4 cells,[4],insensitive
same,3-series sensitivity (sensitivity to STF-31),[5],Yes
same,"oxygen consumption, treated versus not treated cells",[6],no difference
same,3-series sensitivity (sensitivity to STF-31),[7],Yes
same,3-series sensitivity (sensitivity to STF-31),[8],Yes
